Measurements: US12391683B2, “Therapeutic compounds and methods” (Actio Biosciences, Inc., priority 2022, dated 2025)
Several values for one entry are separate records, joined by “and”; a condition that tells them apart may be missing. Equal values may be shown once.

Key:
[1] = molecular target: recombinant human CYP3A4 enzyme (Homo sapiens, UniProt P08684); assay: CYP3A4 incubation assay; assay type: in vitro ADME
Procedure: Example 24. CYP3A4 Incubation Assay
Compounds (final concentration […]) were incubated in 100 mM phosphate buffer containing 100 pmol/mL recombinant human CYP3A4 enzyme for 0, 5, 10, 15 and 25 minutes.
Testosterone was used as positive control. Reaction was initiated by the addition of NADPH (final concentration […]) and carried out at 37° C. The reaction was stopped by the addition of 4 volumes of cold acetonitrile (with 100 nM alprazolam, 200 nM labetalol, 200 nM imipramine and 2 μM ketoprofen as internal standards). Samples were centrifuged at 3,220 g for 40 minutes to precipitate protein. 70 μL supernatant was transferred to the analysis plate containing 110 μL of acetonitrile for LC-MS/MS analysis.
The following table indicates the percentage remaining for the indicated examples after incubation with recombinant Human CYP3A4 after 25 minutes under the same conditions as described for Example […].

Human TRPV4 = Human TRPV4 (Homo sapiens, UniProt Q9HBA0); assay: TRPV4 calcium flux assay (FLIPR, antagonist mode); assay type: cell-based; parameters: HiBiT (inferred from the expression read-out); host or cells: HEK293T; details: HEK293T cells transfected with hTRPV4; antagonist mode vs EC80 of TRPV4 agonist; average of at least 3 separate experiments; read-out: Human TRPV4 Ca2+ Assay IC50
Procedure: Example 23. TRPV4 Calcium Assay Methods
Human embryonic kidney 293T (HEK293T/293T) cells are cultured in complete media (Dulbecco's Modified Eagle Medium (DMEM), containing 10% fetal bovine serum (FBS) and 1× penicillin-streptomycin) in a T-75 tissue culture flask. At 90% confluency, cells are detached using TrypLE™ Express cell dissociation buffer. TrypLE™ Express buffer is neutralized by adding culture media in excess. Cells are gently triturated and counted using trypan blue in a Countess 3 automated cell counter. Cells are transferred to a 50 mL conical tube and spun down at 1000 rotations per minute (RPM) for five minutes in a benchtop centrifuge. Media containing detaching enzyme is aspirated off the pellet, followed by resuspension to the desired concentration of 2×10^6 cells per mL in complete DMEM.
Transfection preparations were scaled using a combination of 6 μg of TRPV4 wild-type or mutant plasmid DNA, 36 μL of Fugene6 transfection reagent, and 1000 μL of OptiMEM media for every 2×10^6 cells needed. The transfection mix is left to incubate for 20 minutes at room temperature. Total seeding mixture (1000 μL 2×10^6 cells, 1000 μL transfection mix previously described, and 1000 μL complete DMEM) for one transfection is combined into a 15 mL conical tube. The cells and transfection plasmid are mixed thoroughly and dispensed into a reservoir. This is plated at 25 μL per well in a black 384, black-well, clear-bottom, tissue-culture treated plate. This yields approximately 16,000 cells per well. Plasmid DNA constructs were designed by Actio Biosciences in conjunction with Genscript, and generated by Genscript, for all hTRPV4 wild-type and hTRPV4 P/LP (ClinVar) mutations (G78W, P82S, T891, P97R, R186Q, R232C, R232P, R237G, R237Q, R237 L, R269C, R269H, R269S, G270V, R271P, F273 L, K276E, E278K, G280S, Y281S, R315G, R315W, R316C, R316H, R316 L, R316S, I331F, D333G, S403T, K403T, K407E, S542P, S542Y, L543R, Y591N, R594C, R594H, R594S, G600E, Y602C, R616Q, F617 L, L618P, V6201, A716S, A716T, L735R, T740I, R775K, W785R, E797D, E797K, P799A, P799R, P799S, P799 L, G800D, K801E, P827H, F471del, N797del). The remaining cells are plated in the same manner, in a 384, white-well, clear-bottom, tissue-culture treated plate for expression and relative cell number determination. Plates are placed in the incubator at 37° C. overnight.
Compounds were brought to 10 mM in DMSO. DMSO concentration was kept constant throughout the dilution of any compound. DMSO negative control and concentration-response curves were nanoliter-spotted via PICO8 automated dispenser at 5× test concentration into a 384w clear polypropylene plate containing 1×HBSS+20 mM HEPES buffer. A predetermined concentration equivalent to the EC80 of TRPV4 agonist on hTRPV4 was prepared at 6× in 1×HBSS+20 mM HEPES and loaded into a separate 384-well v-bottom polypropylene plate.
Approximately 18 hours post-transfection, the cell plates were removed from the incubator and equal volume (25 uL) Calcium 6 dye was gently added. Calcium 6 dye containing probenecid (final 5 mM) was prepared per manufacturer's instructions. Cell plate was returned to the incubator for 1 hour, at 37° C.
FLIPR Penta was programmed to add compound using the following settings • Pipettor Head=384 • Read Mode 1 Excitation Wavelength=470_495 • Read Mode 1 Emission Wavelength=515_575 • Read Mode 1 Exposure=0.1000 • Read Mode 1 Gain=6.50 • Read Mode 1 Excitation Intensity=20 • Volume of addition=12.5 μL • Height=40 μL • Speed=15 μL/second
Raw data was exported and analyzed for maximum signal (RFU) after agonist addition—the average baseline (RFU) in the first 15 seconds per well. Data was plotted in GraphPad Prism to determine EC50 or IC50 of the molecules.

Hepatocytes [2] = assay: Hepatocytes predicted clearance, rat
Hepatocytes [3] = assay: Hepatocytes predicted clearance, dog
Hepatocytes [4] = assay: Hepatocytes predicted clearance, cyno
Hepatocytes [5] = assay: Hepatocytes predicted clearance, mouse
Hepatocytes [6] = assay: Hepatocytes predicted clearance, human
[7] = 100 pmol/mL recombinant human CYP3A4, 37° C., 0-25 min

Sequence of recombinant human CYP3A4 enzyme (P08684 whole entry): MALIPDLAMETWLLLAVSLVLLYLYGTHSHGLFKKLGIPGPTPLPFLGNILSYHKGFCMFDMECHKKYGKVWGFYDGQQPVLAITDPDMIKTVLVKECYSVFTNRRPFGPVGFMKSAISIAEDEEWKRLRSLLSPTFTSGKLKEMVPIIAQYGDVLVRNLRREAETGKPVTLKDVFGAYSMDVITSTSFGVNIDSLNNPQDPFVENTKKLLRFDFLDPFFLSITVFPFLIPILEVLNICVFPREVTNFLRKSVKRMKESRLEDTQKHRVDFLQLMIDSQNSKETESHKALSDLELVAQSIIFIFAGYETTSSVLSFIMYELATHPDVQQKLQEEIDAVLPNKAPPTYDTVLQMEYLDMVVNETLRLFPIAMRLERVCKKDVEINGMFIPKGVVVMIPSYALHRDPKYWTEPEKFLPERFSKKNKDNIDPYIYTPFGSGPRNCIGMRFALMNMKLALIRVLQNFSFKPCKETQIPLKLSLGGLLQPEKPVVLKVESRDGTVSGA
Sequence of Human TRPV4 (Q9HBA0 whole entry): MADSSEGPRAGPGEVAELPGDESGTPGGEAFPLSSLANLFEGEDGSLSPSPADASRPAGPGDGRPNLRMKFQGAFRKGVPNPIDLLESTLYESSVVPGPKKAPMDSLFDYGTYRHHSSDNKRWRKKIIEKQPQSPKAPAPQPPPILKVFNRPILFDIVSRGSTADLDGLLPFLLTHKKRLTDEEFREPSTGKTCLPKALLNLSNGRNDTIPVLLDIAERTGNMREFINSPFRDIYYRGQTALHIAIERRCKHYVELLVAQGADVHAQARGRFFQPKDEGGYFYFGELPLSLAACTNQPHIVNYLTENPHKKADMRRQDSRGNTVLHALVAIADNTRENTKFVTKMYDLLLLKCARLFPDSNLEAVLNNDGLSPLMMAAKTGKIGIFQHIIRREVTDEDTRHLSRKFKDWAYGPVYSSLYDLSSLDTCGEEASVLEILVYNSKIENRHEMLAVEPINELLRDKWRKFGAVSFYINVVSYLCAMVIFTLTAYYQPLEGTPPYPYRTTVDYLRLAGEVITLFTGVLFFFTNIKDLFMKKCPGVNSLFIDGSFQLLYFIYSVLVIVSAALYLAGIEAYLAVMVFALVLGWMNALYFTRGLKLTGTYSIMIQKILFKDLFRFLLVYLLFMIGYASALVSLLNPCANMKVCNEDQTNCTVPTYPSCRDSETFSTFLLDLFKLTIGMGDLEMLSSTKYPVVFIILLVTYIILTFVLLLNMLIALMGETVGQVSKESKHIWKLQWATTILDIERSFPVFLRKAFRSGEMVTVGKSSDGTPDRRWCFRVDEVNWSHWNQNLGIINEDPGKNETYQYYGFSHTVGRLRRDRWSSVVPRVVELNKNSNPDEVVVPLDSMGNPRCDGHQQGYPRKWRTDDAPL

| Structure (SMILES) | CYP3A4 Clint [1, 7] | IC50 (Human TRPV4) [nM] | Hepatocytes predicted clearance in rat (Hepatocytes [2]) [mL/min/kg] | Hepatocytes predicted clearance in dog (Hepatocytes [3]) [mL/min/kg] | Hepatocytes predicted clearance in cyno (Hepatocytes [4]) [mL/min/kg] | Hepatocytes predicted clearance in mouse (Hepatocytes [5]) [mL/min/kg] | Hepatocytes predicted clearance in human (Hepatocytes [6]) [mL/min/kg] | Metabolic Stability in Recombinant Human CYP3A4 + NADPH (% remaining after 25 min) ([1]; recombinant Human CYP3A4 + NADPH, 25 min) [%] | CYP3A4 Clint ([1]; human, recombinant enzyme) |
| --- | --- | --- | --- | --- | --- | --- | --- | --- | --- |
| CO[C@]1(Cn2cnc3ccc(C#N)cc32)CCC[C@@]2(CN(c3cnc(C(C)(C)O)cn3)C(=O)O2)C1 [Example 9, 1-(((5S,7R)-3-(5-(2-Hydroxypropan-2-yl)pyrazin-2-yl)-7-methoxy-2-oxo-1-oxa-3-azaspiro[4.5]decan-7-yl)methyl)-1H-benzo[d]imidazole-6-carbonitrile] | 0.42 μL/min/pmol CYP450 and 0.33 μL/min/pmol CYP450 | 213 | – | – | – | – | – | – | – |
| CC(C)(O)c1cnc(N2C[C@@]3(CC[C@@H](F)[C@](C)(Cn4cnc5c(Cl)cc(C#N)cc54)C3)OC2=O)cn1 (single isomer, unassigned) [Example 19] | – | 9 | – | – | – | – | – | – | – |
| CC(C)(C)CN1C[C@@]2(CCC(F)(F)[C@H](Cn3cnc4ccc(C#N)cc43)C2)OC1=O (single isomer, unassigned) [Example 11] | – | 39 | 251.2 | 63.3 | 90.5 | 515.2 | 17.3 | – | – |
| CC(C)(O)c1cnc(N2C[C@@]3(CCC(F)(F)[C@H](Cn4cnc5ccc(C#N)cc54)C3)OC2=O)cn1 [Example 2, 1-(((5S,7S)-8,8-Difluoro-3-(5-(2-hydroxypropan-2-yl)pyrazin-2-yl)-2-oxo-1-oxa-3-azaspiro[4.5]decan-7-yl)methyl)-1H-benzo[d]imidazole-6-carbonitrile] | 0.08 μL/min/pmol CYP450 and < 0.07 μL/min/pmol CYP450 | 217 | < 0.17 | 1.3 | 34.8 | 31 | < 0.17 | – | – |
| CO[C@@H]1CC[C@@]2(CN(c3cnc(C(C)(C)O)cn3)C(=O)O2)C[C@@]1(C)Cn1cnc2ccc(C#N)cc21 (single isomer, unassigned) [Example 10] | 0.22 μL/min/pmol CYP450 and 0.21 μL/min/pmol CYP450 | 158 | – | – | – | – | – | – | – |
| C=C1CC[C@@]2(CN(c3cnc(C(C)(C)O)cn3)C(=O)O2)C[C@@]1(C)Cn1cnc2ccc(C#N)cc21 (single isomer, unassigned) [Example 16] | 0.20 μL/min/pmol CYP450 and 0.19 μL/min/pmol CYP450 | 2130 | 69.3 | 4 | 22.7 | 90.7 | 5.5 | – | – |
| CC(C)(O)c1cnc(N2C[C@@]3(CC[C@@H](F)[C@](C)(Cn4cnc5cc(F)c(C#N)cc54)C3)OC2=O)cn1 (single isomer, unassigned) [Example 18] | – | 9 | – | – | – | – | – | – | – |
| CC1(C)C[C@](C)(Cn2cnc3ccc(C#N)cc32)C[C@@]2(CN(c3cnc(C(C)(C)O)cn3)C(=O)O2)C1 (single isomer, unassigned) [Example 17] | 0.07, <0.07 μL/min/pmol CYP450 | 5740 | 39.3 | 1.3 | 43.7 | 119 | 1.5 | – | – |
| CCOc1ccccc1N1C[C@@]2(CCC(F)(F)[C@H](Cn3cnc4ccc(C#N)cc43)C2)OC1=O (single isomer, unassigned) [Example 13] | – | 496 | – | – | – | – | – | – | – |
| CC(C)(O)c1cnc(N2C[C@@]3(CCC(C)(C)[C@H](Cn4cnc5ccc(C#N)cc54)C3)OC2=O)cn1 (single isomer, unassigned) [Example 1] | – | 606 | 10.8 | 11.5 | 4 | 118 | 4.5 | – | – |
| CC(C)(O)c1cnc(N2C[C@@]3(CCC(F)(F)[C@](C)(Cn4cnc5ccc(C#N)cc54)C3)OC2=O)cn1 [Example 15, 1-(((5S,7S)-8,8-Difluoro-3-(5-(2-hydroxypropan-2-yl)pyrazin-2-yl)-7-methyl-2-oxo-1-oxa-3-azaspiro[4.5]decan-7-yl)methyl)-1H-benzo[d]imidazole-6-carbonitrile] | 0.09 μL/min/pmol CYP450 and < 0.07 μL/min/pmol CYP450 | 8 | 4.5 | 4.33 | 28.3 | 27.8 | 3.83 | 91.3 | – |
| CC(C)(O)c1cnc(N2C[C@@]3(CC[C@H]4C[C@@]4(Cn4cnc5ccc(C#N)cc54)C3)OC2=O)cn1 (single isomer, unassigned) [Example 8] | – | 391 | 54.5 | 30 | 37.5 | 281.2 | < 0.17 | – | <0.07, <0.07 μL/min/pmol CYP450 |
| N#Cc1ccc2ncn(C[C@@H]3C[C@@]4(CCC3(F)F)CN(c3ccccc3Cl)C(=O)O4)c2c1 (single isomer, unassigned) [Example 12] | – | 103 | 82.5 | 284.5 | 101 | 449.3 | 7.5 | – | – |
| CC(C)(O)c1cnc(N2C[C@@]3(CCC4(CC4)[C@@H](Cn4cnc5ccc(C#N)cc54)C3)OC2=O)cn1 (single isomer, unassigned) [Example 3] | – | 852 | 79.5 | 17.3 | 182 | 131 | 3.17 | – | – |
